The target of the test is T1, human 11β-HSD1 (Homo sapiens, UniProt P28845).
T1 construct: expressed in transfected cells; host or cells: CHO cells (microsomes)
The test can be described thus: Inhibition of microsomal preparation of 11β-HSD1 (SPA, Biological Test Example 1). Type of test: biochemical. The settings on record: for inhibition at 0.111 µM: 111 nM; for IC50: microsomes from CHO cells overexpressing human 11β-HSD1, read-out: IC50 Range; for inhibition at 0.1 µM: 100 nM. How it is done: The inhibition of microsomal preparation of 11β-HSD1 by compounds of the invention was measured essentially as previously described (K. Solly, S. S. Mundt, H. J. Zokian, G. J. Ding, A. Hermanowski-Vosatka, B. Strulovici, and W. Zheng, High-Throughput Screening of 11-Beta-Hydroxysteroid Dehydrogenase Type 1 in Scintillation Proximity Assay Format. Assay Drug Dev Technol 3 (2005) 377-384). All reactions were carried out at rt in 96 well clear flexible PET Microbeta plates (PerkinElmer). The assay begins by dispensing 49 μl of substrate solution (50 mM HEPES, pH 7.4, 100 mM KCl, 5 mM NaCl, 2 mM MgCl2, 2 mM NADPH and 160 nM [^3H]cortisone (1 Ci/mmol)) and mixing in 1 μL of the test compounds in DMSO previously diluted in half-log increments (8 points) starting at 0.1 mM. After a 10 minute pre-incubation, 50 μL of enzyme solution containing microsomes isolated from CHO cells overexpressing human 11β-HSD1 (10-20 μg/ml of total protein) was added, and the plates were incubated for 90 minutes at rt. The reaction was stopped by adding 50 μl of the SPA beads suspension containing 10 μM 18β-glycyrrhetinic acid, 5 mg/ml protein A coated YSi SPA beads (GE Healthcare) and 3.3 μg/ml of anti-cortisol antibody (East Coast Biologics) in Superblock buffer (Bio-Rad). The plates were shaken for 120 minutes at rt, and the SPA signal corresponding to [^3H]cortisol was measured on a Microbeta plate reader.

Results on ten compounds are retold here after patent publication US8383629B2, “Inhibitors of 11β-hydroxysteroid dehydrogenase type 1” (Vitae Pharmaceuticals, Inc., priority 2008, dated 2013).

For orientation: inhibition means the drop in the measured response relative to a control, in per cent. A low value points to a weak effect. The term IC50 denotes the concentration needed to halve the response being measured.

T1 sequence (P28845 whole entry): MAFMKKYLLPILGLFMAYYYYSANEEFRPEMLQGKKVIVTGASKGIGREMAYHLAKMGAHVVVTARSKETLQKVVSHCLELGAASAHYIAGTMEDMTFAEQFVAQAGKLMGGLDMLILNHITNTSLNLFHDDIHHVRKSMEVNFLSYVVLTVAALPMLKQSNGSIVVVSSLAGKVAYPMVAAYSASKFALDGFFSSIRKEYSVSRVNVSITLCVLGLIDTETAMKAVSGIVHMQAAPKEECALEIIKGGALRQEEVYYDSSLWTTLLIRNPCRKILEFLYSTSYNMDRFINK

On to `CCN1C(=O)C2(CCN(C(=O)/C=C/c3ccccc3C(F)(F)F)CC2)c2cc(C(=O)OC)ccc21` [EXAMPLE 40, (E)-methyl 1-ethyl-2-oxo-1′-(3-(2-(trifluoromethyl)phenyl)acryloyl)spiro[indoline-3,4′-piperidine]-5-carboxylate], for which testing at 0.111 µM gave an inhibition of 71.2% and the IC50 was less than 100 nM.

For the compound `O=C(O)CC1CC2(CCN(C(=O)NCc3cc(F)c(F)cc3F)CC2)c2c(Br)cccc21` (stereo not shown) [EXAMPLE 83, 2-(7-bromo-1′-(2,4,5-trifluorobenzylcarbamoyl)-2,3-dihydrospiro[indene-1,4′-piperidine]-3-yl)acetic acid], the inhibition at 0.111 µM was 10.9% and the IC50 was in the range of 100 to 1000 nM.

As for `CN1C(=O)c2ccccc2C12CCN(C(=O)CCc1ccccc1C(F)(F)F)CC2` [EXAMPLE 55, 2-methyl-1′-(3-(2-(trifluoromethyl)phenyl)propanoyl)spiro[isoindoline-1,4′-piperidin]-3-one], the inhibition at 0.111 µM turned out to be 76.5% and the IC50 was less than 100 nM.

For `CNCCN(C)C(=O)CC1CC2(CCN(C(=O)/C=C/c3ccccc3C(F)(F)F)CC2)c2c(Cl)cccc21` (racemic) [EXAMPLE 7, (±)-(E)-2-(7-chloro-1′-(3-(2-(trifluoromethyl)phenyl)acryloyl)-2,3-dihydrospiro[indene-1,4′-piperidine]-3-yl)-N-methyl-N-(2-(methylamino)ethyl)acetamide], at 0.111 µM the inhibition was 87.3% and the IC50 is less than 100 nM.

Regarding `O=C(O)CC1CC2(CCN(C(=O)Cc3ccccc3OC(F)(F)F)CC2)c2c(Cl)cccc21` (stereo not shown) [EXAMPLE 52, 2-(7-chloro-1′-(2-(2-(trifluoromethoxy)phenyl)acetyl)-2,3-dihydrospiro[indene-1,4′-piperidine]-3-yl)acetic acid], the inhibition at 0.1 µM amounted to 61.2% and the IC50 was less than 100 nM.

As to `O=C(O)CC1CC2(CCN(C(=O)/C=C/c3ccc(F)cc3C(F)(F)F)CC2)c2c(Cl)cccc21` (racemic) [EXAMPLE 4, (±)-(E)-2-(7-chloro-1′-(3-(4-fluoro-2-(trifluoromethyl)phenyl)acryloyl)-2,3-dihydrospiro[indene-1,4′-piperidine]-3-yl)acetic acid], testing at 0.111 µM gave an inhibition of 94.2% and the IC50 was less than 100 nM.

Take `O=C(O)CC1CC2(CCN(C(=O)/C=C/c3cccc(Cl)c3Cl)CC2)c2c(Cl)cccc21` (racemic) [EXAMPLE 9, (±)-(E)-2-(7-chloro-1′-(3-(2,3-dichlorophenyl)acryloyl)-2,3-dihydrospiro[indene-1,4′-piperidine]-3-yl)acetic acid]: the inhibition at 0.111 µM was found to be 77.8% and the IC50 is less than 100 nM.

On to `CN1C(=O)c2cccc(Cl)c2C12CCN(C(=O)/C=C/c1ccccc1C(F)(F)F)CC2` [EXAMPLE 25, (E)-7-chloro-2-methyl-1′-(3-(2-(trifluoromethyl)phenyl)acryloyl)spiro[isoindoline-1,4′-piperidin]-3-one], for which 0.1 µM produced 95.5% inhibition, the inhibition at 0.111 µM is 95.3% and the IC50 was less than 100 nM.

In the case of `NC1CC2(CCN(C(=O)/C=C/c3ccccc3C(F)(F)F)CC2)c2c(Br)cccc21` (racemic) [EXAMPLE 18, (±)-(E)-1-(3-amino-7-bromo-2,3-dihydrospiro[indene-1,4′-piperidine]-1′-yl)-3-(2-(trifluoromethyl)phenyl)prop-2-en-1-one], the inhibition at 0.111 µM came to 93.3% and the IC50 was less than 100 nM.

As for `COc1ccc2c(c1)CCNC21CCN(C(=O)/C=C/c2ccccc2C(F)(F)F)CC1` [EXAMPLE 30, (E)-1-(6-methoxy-3,4-dihydro-2H-spiro[isoquinoline-1,4′-piperidine]-1′-yl)-3-(2-(trifluoromethyl)phenyl)prop-2-en-1-one], the inhibition at 0.1 µM turned out to be 90.3%, the inhibition at 0.111 µM was determined as 94.6% and the IC50 was less than 100 nM.
